Reference: publication PMC12316308, “Interactions of substrates and phosphinyl containing inhibitors with bacterial and human zinc proteases” (PLOS One, 2025)
Several values for one entry are separate records, joined by “and”; a condition that tells them apart may be missing. Identical values can stand only once. Like-named read-outs stand apart in the source and are kept apart here.

Experiments:
[1] = target: T1, Mag-Trypsin activated MMP-9 (MMP-9(MT)) (Homo sapiens, UniProt P14780); test: Enzyme inhibition kinetics, fluorogenic substrate ES001; type: biochemical; settings: for remaining activity at 100 µM: 100 µM inhibitor; for vi/v0: Mag-Trypsin activated recombinant human MMP-9, v0 = average of vi at 10-10 to 10-8 M H2
T1 construct: made in house; host or cells: Sf9 and High Five insect cells

[2] = target: T2, APMA activated MMP-9 (MMP-9(A)) (Homo sapiens, UniProt P14780); test: as above; type: biochemical; settings: for remaining activity at 10 µM: 10 µM inhibitor
T2 construct: made in house; host or cells: Sf9 and High Five insect cells
Summary of the method: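 Recombinant full-length proMMP-9 expressed in insect cells was auto-activated with APMA and titrated with galardin. Activity at 0.05 nM enzyme was measured using 4.0 µM fluorogenic substrate ES001 in 100 µL 0.1 M Hepes pH 7.5 containing 10 mM CaCl2, 0.005% Brij-35 and 1.0% DMSO. Initial rates were followed at 37°C (excitation 320 nm, emission 405 nm) relative to inhibitor-free controls.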

aureolysin (ALN) = target: T3, aureolysin (ALN) (Staphylococcus aureus, UniProt P81177); test: Enzyme inhibition kinetics, fluorogenic substrate ES005; type: biochemical; settings: for remaining activity at 100 µM: 100 µM inhibitor
T3 construct: purchased BioCentrum Ltd (Kraków, Poland)

pseudolysin (PLN, LasB) = target: T4, pseudolysin (PLN, LasB) (Pseudomonas aeruginosa, UniProt P14756); test: as above; type: biochemical; settings: for remaining activity at 100 µM: 100 µM inhibitor
T4 construct: purchased Calbiochem (San Diego, CA, USA)

thermolysin (TLN) = target: T5, thermolysin (TLN) (Bacillus thermoproteolyticus, UniProt P00800); test: as above; type: biochemical; settings: for remaining activity at 10 µM: log [H2] (M) -5; for remaining activity at 0.1 µM: log [H2] (M) -7; for remaining activity at 0.01 µM: log [H2] (M) -8; for remaining activity at 0.0001 µM: log [H2] (M) -10; for vi/v0 avg (time dependent inhibition, Supplementary Figure S8): Thermolysin, inhibitor 10 µM
T5 construct: purchased Calbiochem (San Diego, CA, USA)
Summary of the method: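 Initial rates were read at 37 °C (ex 320/em 405 nm) with 4.0 µM substrate, ES001 for MMP-14 (1.0 nM) and ES005 for PLN (0.5 nM), TLN (0.21 nM), ALN (1.4 nM), in pH 7.5 Hepes, 10 mM CaCl2, 0.005% Brij-35, 1.0% DMSO. Enzymes were preincubated 30 min at room temperature or not; IC50 fitted, Ki from IC50 using Km.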

[3] = target: T6, human MT1-MMP/MMP-14 (catalytic domain) (Homo sapiens, UniProt P50281); test: Enzyme inhibition kinetics, fluorogenic substrate ES001; type: biochemical; settings: for remaining activity at 10 µM: 10 µM inhibitor
T6 construct: human MT1-MMP/MMP-14 (catalytic domain); purchased Calbiochem (San Diego, CA, USA)

MMP-14 = settings: cited from earlier work
MMP-9 = settings: previously reported; cited from earlier work
[4] = TLN, log [H2] (M) -4, replicates
[5] = TLN, replicates, read-out: vi/v0 before correction of kurve
[6] = TLN, replicates, read-out: vi/v0 corrected (v0 is the average of log -10 to log -7)

T4 sequence (P14756 198-498): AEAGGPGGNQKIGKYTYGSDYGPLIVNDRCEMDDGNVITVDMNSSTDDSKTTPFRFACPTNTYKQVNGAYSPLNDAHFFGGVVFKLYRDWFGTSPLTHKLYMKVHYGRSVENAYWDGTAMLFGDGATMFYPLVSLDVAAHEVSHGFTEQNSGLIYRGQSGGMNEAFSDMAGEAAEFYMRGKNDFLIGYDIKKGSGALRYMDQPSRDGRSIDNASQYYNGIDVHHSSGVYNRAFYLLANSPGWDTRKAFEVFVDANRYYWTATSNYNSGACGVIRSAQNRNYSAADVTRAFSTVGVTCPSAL
T5 sequence (P00800 233-548): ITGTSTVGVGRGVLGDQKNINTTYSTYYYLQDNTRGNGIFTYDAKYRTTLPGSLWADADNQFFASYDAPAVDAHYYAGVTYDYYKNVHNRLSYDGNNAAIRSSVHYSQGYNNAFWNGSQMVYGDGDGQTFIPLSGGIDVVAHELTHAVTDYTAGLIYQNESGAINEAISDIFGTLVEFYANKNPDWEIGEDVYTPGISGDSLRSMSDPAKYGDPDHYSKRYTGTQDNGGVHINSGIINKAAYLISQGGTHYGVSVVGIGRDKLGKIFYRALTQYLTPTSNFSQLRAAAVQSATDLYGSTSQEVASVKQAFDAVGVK
T3 sequence (P81177 209-509): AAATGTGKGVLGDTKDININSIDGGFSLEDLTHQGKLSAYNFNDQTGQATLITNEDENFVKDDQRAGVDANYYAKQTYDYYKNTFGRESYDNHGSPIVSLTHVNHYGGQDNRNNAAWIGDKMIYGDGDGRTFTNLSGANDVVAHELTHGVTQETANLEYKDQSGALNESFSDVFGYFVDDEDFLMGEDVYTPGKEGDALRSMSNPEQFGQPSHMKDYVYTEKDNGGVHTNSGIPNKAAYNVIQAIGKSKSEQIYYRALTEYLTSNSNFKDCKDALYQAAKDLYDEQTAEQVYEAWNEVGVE
T2 sequence (P14780 107-707 limits assumed): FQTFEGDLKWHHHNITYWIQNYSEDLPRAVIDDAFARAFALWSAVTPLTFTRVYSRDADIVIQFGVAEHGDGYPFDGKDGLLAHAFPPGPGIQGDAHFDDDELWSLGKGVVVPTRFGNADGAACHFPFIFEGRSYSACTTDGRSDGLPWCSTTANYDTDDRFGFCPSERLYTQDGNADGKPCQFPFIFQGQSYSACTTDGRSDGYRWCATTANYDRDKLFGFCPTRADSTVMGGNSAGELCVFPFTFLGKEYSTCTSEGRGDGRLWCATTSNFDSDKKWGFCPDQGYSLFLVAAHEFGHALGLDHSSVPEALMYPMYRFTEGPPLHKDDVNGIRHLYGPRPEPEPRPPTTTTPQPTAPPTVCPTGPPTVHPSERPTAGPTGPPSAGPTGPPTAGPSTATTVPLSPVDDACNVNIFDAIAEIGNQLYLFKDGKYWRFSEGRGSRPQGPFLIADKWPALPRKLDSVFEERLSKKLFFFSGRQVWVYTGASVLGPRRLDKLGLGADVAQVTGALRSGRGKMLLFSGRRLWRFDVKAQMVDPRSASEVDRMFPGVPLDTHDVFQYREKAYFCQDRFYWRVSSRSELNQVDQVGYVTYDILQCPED
T1 sequence (P14780 107-707 limits assumed): as above

NC(=O)C(Cc1c[nH]c2ccccc12)NC(=O)C(CCCc1ccccc1)CP(=O)(O)C(Cc1ccccc1)NC(=O)OCc1ccccc1 (centres unmarked) [H-2]
remaining activity at 100 µM ([1]; 0.25 h, read-out: vi/v0 avg, rMMP-9 (Mag-trypsin activated), 15 min pre incubation): 1.53%
remaining activity at 100 µM ([1]; 0.5 h, read-out: vi/v0 (single replicate), rMMP-9 (Mag-trypsin activated), 30 min pre incubation): 1.66%
remaining activity at 100 µM ([1]; 0.5 h, read-out: vi/v0 avg, rMMP-9 (Mag-trypsin activated), 30 min pre incubation): 1.41%
inhibitory effect on enzymatic activity ([1]; MMP-9(MT), 100 μM compound, in words): strong inhibition
Ki ([1]; MMP-9(MT), substrate ES001 4.0 µM, 0.1 M Hepes pH 7.5, 37°C, 1.0% DMSO, Ki from IC50 (Eqn. 3), read-out: Ki ± s.d. (converted)): 530 nM
vi/v0 ([1]; Log [H2] (M) -4): 0.01838 and 0.0265 and 0.01864 and 0.01609
vi/v0 ([1]; Log [H2] (M) -5): 0.1569 and 0.1424 and 0.1393 and 0.1595
vi/v0 ([1]; Log [H2] (M) -6): 0.5598 and 0.5376 and 0.5583 and 0.5906
vi/v0 ([1]; Log [H2] (M) -7): 0.8621 and 0.7854 and 0.9893
vi/v0 ([1]; Log [H2] (M) -8): 0.9994 and 0.9899 and 0.9629
vi/v0 ([1]; Log [H2] (M) -9): 0.9775 and 0.9856 and 0.9448
vi/v0 ([1]; Log [H2] (M) -10): 1.053 and 1.045 and 1.043
vi/v0 Av (bar diagram figure 7) ([1]; rMMP-9 (Mag-trypsin activated), inhibitor 100 μM, average over 0, 15, 30 min preincubation): 0.01565
vi/v0 (relative enzyme activity with inhibitor), single determinations ([1]; rMMP-9 (Mag-trypsin activated), inhibitor 100 μM, preincubation 0 min): 0.01777 and 0.01586 and 0.01778 and 0.01563
vi/v0 (relative enzyme activity with inhibitor), single determinations ([1]; rMMP-9 (Mag-trypsin activated), inhibitor 100 μM, preincubation 30 min): 0.01655 and 0.01171
remaining activity at 100 µM ([1]; read-out: vi/v0 (single replicate), rMMP-9 (Mag-trypsin activated), no preincubation): 1.78%
remaining activity at 100 µM ([1]; read-out: vi/v0 avg, rMMP-9 (Mag-trypsin activated), no preincubation): 1.68%
remaining activity at 10 µM ([2]; 0.25 h, read-out: vi/v0 (single replicate), rMMP-9 (APMA activated), 15 min pre incubation): 2.55%
remaining activity at 10 µM ([2]; 0.25 h, read-out: vi/v0 avg, rMMP-9 (APMA activated), 15 min pre incubation): 2.28%
remaining activity at 10 µM ([2]; 0.5 h, read-out: vi/v0 (single replicate), rMMP-9 (APMA activated), 30 min pre incubation): 1.79%
remaining activity at 10 µM ([2]; 0.5 h, read-out: vi/v0 avg, rMMP-9 (APMA activated), 30 min pre incubation): 1.99%
inhibitory effect on enzymatic activity ([2]; MMP-9(A), 100 μM compound, in words): strong inhibition
Ki ([2]; MMP-9(A), substrate ES001 4.0 µM, 0.1 M Hepes pH 7.5, 37°C, 1.0% DMSO, Ki from IC50 (Eqn. 3), read-out: Ki ± s.d. (converted)): 560 nM
vi/v0 Av (bar diagram figure 7) ([2]; rMMP-9 (APMA activated), inhibitor 10 μM, average over 0, 15, 30 min preincubation): 0.02111
vi/v0 (relative enzyme activity with inhibitor), single determinations ([2]; rMMP-9 (APMA activated), inhibitor 10 μM, preincubation 0 min): 0.0222 and 0.02292 and 0.01955 and 0.01797
vi/v0 (relative enzyme activity with inhibitor), single determinations ([2]; rMMP-9 (APMA activated), inhibitor 10 μM, preincubation 15 min): 0.02548 and 0.02093 and 0.0213 and 0.0234
vi/v0 (relative enzyme activity with inhibitor), single determinations ([2]; rMMP-9 (APMA activated), inhibitor 10 μM, preincubation 30 min): 0.01792 and 0.01966 and 0.0206 and 0.02139
remaining activity at 10 µM ([2]; read-out: vi/v0 (single replicate), rMMP-9 (APMA activated), no preincubation): 2.22%
remaining activity at 10 µM ([2]; read-out: vi/v0 avg, rMMP-9 (APMA activated), no preincubation): 2.07%
Ki (aureolysin (ALN)): 80000 nM
remaining activity at 100 µM (aureolysin (ALN); 0.25 h, read-out: vi/v0 (single replicate), Aureolysin, 15 min pre incubation): 45.5%
remaining activity at 100 µM (aureolysin (ALN); 0.25 h, read-out: vi/v0 avg, Aureolysin, 15 min pre incubation): 41.5%
remaining activity at 100 µM (aureolysin (ALN); 0.5 h, read-out: vi/v0 (single replicate), Aureolysin, 30 min pre incubation): 39.1%
remaining activity at 100 µM (aureolysin (ALN); 0.5 h, read-out: vi/v0 avg, Aureolysin, 30 min pre incubation): 39.4%
inhibitory effect on enzymatic activity (aureolysin (ALN); ALN, 100 μM compound, in words): strong inhibition
vi/v0 Av (bar diagram figure 7) (aureolysin (ALN); Aureolysin (ALN), inhibitor 100 μM, average over 0, 15, 30 min preincubation): 0.4117
vi/v0 (relative enzyme activity with inhibitor), single determinations (aureolysin (ALN); Aureolysin (ALN), inhibitor 100 μM, preincubation 0 min): 0.4244 and 0.4426 and 0.4113 and 0.3677
vi/v0 (relative enzyme activity with inhibitor), single determinations (aureolysin (ALN); Aureolysin (ALN), inhibitor 100 μM, preincubation 15 min): 0.4549 and 0.4344 and 0.3957 and 0.4144
vi/v0 (relative enzyme activity with inhibitor), single determinations (aureolysin (ALN); Aureolysin (ALN), inhibitor 100 μM, preincubation 30 min): 0.3912 and 0.406 and 0.3859
remaining activity at 100 µM (aureolysin (ALN); read-out: vi/v0 (single replicate), Aureolysin, no preincubation): 42.4%
remaining activity at 100 µM (aureolysin (ALN); read-out: vi/v0 avg, Aureolysin, no preincubation): 41.1%
Ki (pseudolysin (PLN, LasB)): 40000 nM
remaining activity at 100 µM (pseudolysin (PLN, LasB); 0.25 h, read-out: vi/v0 (single replicate), Pseudolysin, 15 min pre incubation): 29.3%
remaining activity at 100 µM (pseudolysin (PLN, LasB); 0.25 h, read-out: vi/v0 avg, Pseudolysin, 15 min pre incubation): 29.7%
remaining activity at 100 µM (pseudolysin (PLN, LasB); 0.5 h, read-out: vi/v0 avg, Pseudolysin, 30 min pre incubation): 28.3%
inhibitory effect on enzymatic activity (pseudolysin (PLN, LasB); PLN, 100 μM compound, in words): strong inhibition
vi/v0 Av (bar diagram figure 7) (pseudolysin (PLN, LasB); Pseudolysin (PLN), inhibitor 100 μM, average over 0, 15, 30 min preincubation): 0.3295
vi/v0 (relative enzyme activity with inhibitor), single determinations (pseudolysin (PLN, LasB); Pseudolysin (PLN), inhibitor 100 μM, preincubation 0 min): 0.3705 and 0.2811 and 0.5391
vi/v0 (relative enzyme activity with inhibitor), single determinations (pseudolysin (PLN, LasB); Pseudolysin (PLN), inhibitor 100 μM, preincubation 15 min): 0.293 and 0.3019
remaining activity at 100 µM (pseudolysin (PLN, LasB); read-out: vi/v0 avg, Pseudolysin, no preincubation): 39.7%
inhibitory effect on enzymatic activity (thermolysin (TLN); TLN, 100 μM compound, in words): strong inhibition
vi/v0 before correction of kurve (thermolysin (TLN); [4]): 0
vi/v0 corrected (v0 is the average of log -10 to log -7) (thermolysin (TLN); [4]): 0
remaining activity at 100 µM (thermolysin (TLN); TLN, log [H2] (M) -4, replicates, read-out: vi/v0 before correction of kurve): 0%
remaining activity at 100 µM (thermolysin (TLN); TLN, log [H2] (M) -4, replicates, read-out: vi/v0 corrected (v0 is the average of log -10 to log -7)): 0%
remaining activity at 10 µM (thermolysin (TLN); [5]): 28.2%
remaining activity at 10 µM (thermolysin (TLN); [6]): 28.1%
remaining activity at 0.1 µM (thermolysin (TLN); [5]): 99.7%
remaining activity at 0.1 µM (thermolysin (TLN); [6]): 99.5%
remaining activity at 0.01 µM (thermolysin (TLN); [5]): 102%
remaining activity at 0.01 µM (thermolysin (TLN); [6]): 102%
remaining activity at 0.0001 µM (thermolysin (TLN); [5]): 95%
remaining activity at 0.0001 µM (thermolysin (TLN); [6]): 94.8%
vi/v0 Av (bar diagram figure 7) (thermolysin (TLN); Thermolysin (TLN), inhibitor 10 μM, average over 0, 15, 30 min preincubation): 0.2888
vi/v0 (relative enzyme activity with inhibitor), single determinations (thermolysin (TLN); Thermolysin (TLN), inhibitor 10 μM, preincubation 0 min): 0.2407 and 0.2992 and 0.3158 and 0.3218
vi/v0 avg (time dependent inhibition, Supplementary Figure S8) (thermolysin (TLN); 15 min pre incubation): 0.1753
vi/v0 avg (time dependent inhibition, Supplementary Figure S8) (thermolysin (TLN); 30 min pre incubation): 0.294
vi/v0 avg (time dependent inhibition, Supplementary Figure S8) (thermolysin (TLN); No preincubation): 0.2944
Ki (thermolysin (TLN); read-out: Ki ± s.d.): 2500 nM
remaining activity at 10 µM ([3]; 0.25 h, MMP-14, 15 min pre incubation, read-out: vi/v0 (single replicate)): 16.5%
remaining activity at 10 µM ([3]; 0.25 h, MMP-14, 15 min pre incubation, read-out: vi/v0 avg): 16%
remaining activity at 10 µM ([3]; 0.5 h, MMP-14, 30 min pre incubation, read-out: vi/v0 (single replicate)): 14.6%
remaining activity at 10 µM ([3]; 0.5 h, MMP-14, 30 min pre incubation, read-out: vi/v0 avg): 14.7%
remaining activity at 10 µM ([3]; MMP-14, no preincubation, read-out: vi/v0 (single replicate)): 14.5%
remaining activity at 10 µM ([3]; MMP-14, no preincubation, read-out: vi/v0 avg): 17.8%
inhibitory effect on enzymatic activity ([3]; MMP-14, 100 μM compound, in words): strong inhibition
vi/v0 Av (bar diagram figure 7) ([3]; MMP-14, inhibitor 10 μM, average over 0, 15, 30 min preincubation): 0.1603
vi/v0 (relative enzyme activity with inhibitor), single determinations ([3]; MMP-14, inhibitor 10 μM, preincubation 0 min): 0.1454 and 0.1797 and 0.2098
Ki ([3]; read-out: Ki ± s.d. (converted)): 3000 nM
Ki (MMP-14; RRS enantiomer): 386 nM
Ki (MMP-14; RSS enantiomer): 90 nM
Ki (MMP-14; previously reported): 40 nM
Ki (MMP-9): 10 nM
